# From patent publication US20250188033A1, “INHIBITOR OF REPLICATION PROTEIN A1 OF TRYPANOSOMA BRUCEI AND METHOD OF USE THEREOF” (Research Foundation of the City University of New York, published 2025)
# Test system: Trypanosoma brucei
# Experiment: ALAMARBLUE cell viability / growth assay of T. brucei cells
# Type: cell-based
# Settings: T. brucei, 72 hours, normalized to DMSO control
# Method: To determine cell growth rate, WT and two TbRPA1 RNAi KD strains (KD1 and KD2) were seeded at a density of 1×10^5 cells/ml and cultured with or without tetracycline for the induction of RNAi. Cells were counted every 12 hours for 2 days. To determine the viability of TbRPA1-depleted cells, ALAMARBLUE® assay (Thermo Fisher, an established colorimetric technique that detects metabolically active cells) was used. Cells from each time point were incubated with ALAMARBLUE® dye for 4-6 hours and percentage of live cells was determined by measuring resorufin converted from resazurin by reducing environment of live cells. Synergy H1 microplate reader (BioTek) was used with 560/590 nm (excitation/emission) filter settings and Relative Fluorescence Unit (RFU) values were obtained. The percentage of viable cells were calculated from the RFU values.
# The initial assessment of JC-229's inhibitory effect on T. brucei cell growth was performed at 50 μM concentration. Trypanosome cells were seeded at 1×10^3 cells/ml density in 180 μl in a 96-well culture plate in triplicate. These cells were incubated with 50 μM JC-229 for 24, 48, and 72 hours. DMSO was used as a vehicle control at 0.0075%. JC-229-treated culture and control cultures were analyzed with the ALAMARBLUE® dye as described above.
# To obtain the EC50 value of JC-229, T. brucei cells were seeded at 1×10^3 cells/ml density in 180 μl in a 96-well culture plate in triplicate. These cells were incubated for 72 hours with increasing concentrations of JC-229, (0.5 μM to 50 μM) and cell viability was determined using the ALAMARBLUE® dye as described above.
# Trypanosoma brucei cytotoxicity of JC-229 and analogs were measured using ALAMARBLUE® assay (Rampersad, S. N. Multiple applications of ALAMARBLUE® as an indicator of metabolic function and cellular health in cell viability bioassays. Sensors (Basel) 12, 12347-12360 (2012). Trypanosome cells were seeded at 1×10^3 cells/ml density in 180 μl in a 96-well culture plate in triplicate. These cells were incubated with indicated concentration of JC compounds for 72 hours. DMSO was used as a vehicle control at 0.0075%. JC compound-treated cultures were then incubated with ALAMARBLUE® dye for 4-6 hours and percentage of live cells was determined using Synergy H1 microplate reader (BioTek) with 560/590 nm (excitation/emission) filter settings and Relative Fluorescence Unit (RFU) values were obtained. The percentage of viable cells were calculated from the RFU values by normalizing to DMSO treated control. In one embodiment, the inhibitor is characterized in that it provides at least 50%, at least 80% or at least 90% inhibition at a concentration of 5 μM when tested in accordance with the above conditions.
SMILES,% Inhibition @2 μM,% Inhibition @10 μM,% Inhibition @5 μM
Cc1ccc(C(=O)Nc2ccc(Cl)c(Cl)c2)cc1S(=O)(=O)N1CCN(C)CC1 [JC-916],−2%,36%,
Cc1ccc(C(=O)Nc2ccc(Cl)c(Cl)c2)cc1S(=O)(=O)NCCNS(=O)(=O)c1ccc(CBr)cc1 [JC-993],76%,,100%
Cc1ccc(C(=O)Nc2ccc(Cl)c(Cl)c2)cc1S(=O)(=O)Nc1ccc(O)cc1 [JC-912],−5%,58%,
Cc1ccc(C(=O)Nc2ccc(Cl)c(Cl)c2)cc1S(=O)(=O)C1CCC(NC(=O)OC(C)(C)C)CC1 (stereo not shown) [JC-924],−2%,100%,99.4%
Cc1ccc(C(=O)Nc2ccc(Cl)c(Cl)c2)cc1S(=O)(=O)N1CCC(NS(=O)(=O)c2cccc(Br)c2)CC1 [JC-1010],9%,,−15%
Cc1ccc(C(=O)Nc2ccc(Cl)c(Cl)c2)cc1S(=O)(=O)C1CCNCC1.O=C(O)C(F)(F)F [JC-911],11%,25%,
Cc1ccc(C(=O)Nc2ccc(Cl)c(Cl)c2)cc1S(=O)(=O)NCCCCCO [JC-897],0%,36%,
Cc1cc(NS(=O)(=O)c2cc(C(=O)Nc3ccc(Cl)c(Cl)c3)ccc2C)n[nH]1 [JC-894],−4%,2%,
Cc1ccc(C(=O)Nc2ccc(Cl)c(Cl)c2)cc1S(=O)(=O)NCc1cccc2ccccc12 [JC-887],−9%,14%,
Cc1ccc(C(=O)Nc2ccc(Cl)c(Cl)c2)cc1S(=O)(=O)N1CCC(NS(=O)(=O)c2ccc(CBr)cc2)CC1 [JC-1009],99%,,100%
Cc1ccc(C(=O)Nc2ccc(Cl)c(Cl)c2)cc1S(=O)(=O)Nc1ccc(C#N)cc1N [JC-889],−3%,−11%,
Cc1ccc(C(=O)Nc2ccc(Cl)c(Cl)c2)cc1S(=O)(=O)NCCNC(=O)[C@H](N)Cc1ccccc1 [JC-922],−7%,19%,
Cc1ccc(C(=O)NCCN(C)C)cc1S(=O)(=O)Nc1ccc(Cl)c(Cl)c1.O=C(O)C(F)(F)F [JC-863],−40%,2%,
Cc1ccc(C(=O)Nc2ccc(Cl)c(Cl)c2)cc1S(=O)(=O)NCCCNC(=O)Cc1ccccc1 [JC-934],11%,34%,
Cc1ccc(C(=O)Nc2ccc(Cl)c(Cl)c2)cc1S(=O)(=O)N1CCCC(NS(C)(=O)=O)C1 (stereo not shown) [JC-964],−16%,,−23%
Cc1ccc(C(=O)Nc2ccc(Cl)c(Cl)c2)cc1S(=O)(=O)N1CCCC(NC(=S)Nc2ccc(F)cc2)C1 (stereo not shown) [JC-965],64%,,100%
Cc1ccc(C(=O)Nc2ccc(Cl)c(Cl)c2)cc1S(=O)(=O)NC(Cc1ccccc1)C(N)=O (stereo not shown) [JC-869],−34%,30%,
Cc1ccc(C(=O)Nc2ccc(Cl)c(Cl)c2)cc1S(=O)(=O)N(CCCCO)Cc1ccccc1 [JC-891],13%,100%,88.8%
Cc1ccc(C(=O)Nc2ccc(Cl)c(Cl)c2)cc1S(=O)(=O)NCCCNS(=O)(=O)c1ccc(Br)cc1 [JC-998],0%,,100%
Cc1ccc(C(=O)Nc2ccc(Cl)c(Cl)c2)cc1S(=O)(=O)NCCNS(=O)(=O)c1ccc(Br)cc1 [JC-923],2%,100%,100.9%
Cc1ccc(C(=O)Nc2ccc(Cl)c(Cl)c2)cc1S(=O)(=O)Nc1cc(C(F)(F)F)n[nH]1 [JC-874],1%,97%,51.8%

SMILES,% Inhibition @2 μM,% Inhibition @10 μM,% Inhibition @5 μM
O=C(Nc1ccc(Cl)c(Cl)c1)c1ccc(O)c(S(=O)(=O)Nc2ccc(Cl)c(Cl)c2)c1 [JC-907],12%,5%,
Cc1ccc(C(=O)Nc2ccc(Cl)c(Cl)c2)cc1S(=O)(=O)N1CCOCC1 [JC-885],13%,38%,
Cc1ccc(C(=O)Nc2ccc(Cl)c(Cl)c2)cc1S(=O)(=O)Nc1ccncc1 [JC-915],−11%,6%,
Cc1ccc(C(=O)Nc2ccc(Cl)c(Cl)c2)cc1S(=O)(=O)NCCCNC(=O)c1ccccc1 [JC-935],3%,19%,
Cc1ccc(C(=O)Nc2ccc(Cl)c(Cl)c2)cc1S(=O)(=O)N1CCCC(NC(=S)Nc2ccc(C(F)(F)F)cc2)C1 (stereo not shown) [JC-1008],100%,,100%
Cc1ccc(C(=O)Nc2ccc(Cl)c(Cl)c2)cc1S(=O)(=O)NCCNC(=O)OC(C)(C)C [JC-917],−14%,73%,
Cc1ccc(C(=O)Nc2ccc(Cl)c(Cl)c2)cc1S(=O)(=O)Nc1ccc([N+](=O)[O-])cc1N [JC-892],13%,1%,
Cc1ccc(C(=O)Nc2ccc(Cl)c(Cl)c2)cc1S(=O)(=O)C1CCCN(C(=O)OC(C)(C)C)C1 (stereo not shown) [Jc-950],28%,,3%
Cc1ccc(C(=O)Nc2ccc(Cl)c(Cl)c2)cc1S(=O)(=O)NCCCN.O=C(O)C(F)(F)F [JC-933],5%,60%,
Cc1ccc(C(=O)Nc2ccc(Cl)c(Cl)c2)cc1S(=O)(=O)NC1CC(N)C1 (stereo not shown) [JC-957],−30%,,84%
COc1ccc(NC(=S)NC2CCN(S(=O)(=O)c3cc(C(=O)Nc4ccc(Cl)c(Cl)c4)ccc3C)CC2)cc1 [JC-1016],52%,,100%
Cc1ccc(C(=O)Nc2ccc(Cl)c(Cl)c2)cc1S(=O)(=O)C1CCN(C(=O)OC(C)(C)C)CC1 [JC-910],18%,73%,
Cc1ccc(C(=O)Nc2ccc(Cl)c(Cl)c2)cc1S(=O)(=O)NCCNS(=O)(=O)c1cccc(F)c1 [JC-996],−19%,,69%
Cc1ccc(C(=O)Nc2ccc(Cl)c(Cl)c2)cc1S(=O)(=O)NCCNS(=O)(=O)c1cc(C(=O)Nc2ccc(Cl)c(Cl)c2)ccc1C [JC-1021],0%,,−5%
Cc1ccc(C(=O)Nc2ccc(Cl)c(Cl)c2)cc1S(=O)(=O)Nc1cc(C(C)C)n[nH]1 [JC-888],16%,100%,62.1%
Cc1ccc(C(=O)Nc2ccc(Cl)c(Cl)c2)cc1S(=O)(=O)C1CCCC(NC(=O)OC(C)(C)C)C1 (stereo not shown) [JC-954],10%,,35%
O=C(Nc1ccc(Cl)c(Cl)c1)c1ccc(Br)c(S(=O)(=O)Nc2ccc(Cl)c(Cl)c2)c1 [JC-855],−5%,89%,
Cc1ccc(C(=O)Nc2ccc(Cl)c(Cl)c2)cc1S(=O)(=O)N1CCC(NS(=O)(=O)c2ccc(Br)cc2C(F)(F)F)CC1 [JC-1011],63%,,101%
Cc1ccc(C(=O)Nc2ccc(Cl)c(Cl)c2)cc1S(=O)(=O)N1CCC(F)(F)CC1 [JC-886],3%,100%,93.7%
Cc1ccc(C(=O)Nc2ccc(Cl)c(Cl)c2)cc1S(=O)(=O)NCCNC(=S)Nc1ccccc1F [JC-1001],49%,,66%
